Assay results from article PMC6481345, “A novel anti-melanoma SRC-family kinase inhibitor” (Oncotarget, 2019).
“Also recorded” adds a separate entry of the source.

What was measured:
[1] = tested on: pY416 SFK; assay: Western blot, auto-phosphorylated Y416 of SFK; assay type: cell-based, human; conditions: melanoma cell lines; SAB298 0.5 µM, 5 hrs
Method: (§1) The effect of SAB298 on a panel of 36 recombinant kinases, was screed with the radioisotope filter binding assay employing 10 concentrations of the compound with 10 µM ATP (Reaction Biology Corporation, Malvern, PA). In addition, we tested the endogenous kinome response to SAB298 (0.05 µM, 0.5 µM and 5 µM) in lysates from two melanoma cell lines (YUSIV and YUSIK) employing the KiNativ® platform (ActivX Biosciences Inc., La Jolla, CA). KiNativ® is a robust, high performance mass spectrometry (LC-MS^2) assay that uses biotinylated probes to measure relevant changes in the affinity to the ATP-binding sites of 205 native kinases as a function of cellular context. We also validated SAB298 effect on the activity of SRC-family kinases by probing for phosphorylated Y416, the marker of activated SFKs, with anti-IEDNEpYTAR antibodies (also known as Y419, #2101, Cell Signaling Technology, Beverly, MA). In some cases the cells were incubated overnight with 20 µM proteasome inhibitor MG-132 (CAS 133407-82-6, Millipore Sigma, Burlington, MA) to rescue degradation.
We used standard techniques to identify changes in intracellular signaling in response to various treatments. […] Protein concentrations were measured with the BioRad kit (Bio-Rad Laboratories, Hercules, CA), SDS sample buffer was added, extracts were heated at 95°C, sonicated and centrifuged. […]

[2] = tested on: YUHIMO melanoma cells; assay: CellTiter-Glo Luminescent Cell Viability Assay; assay type: cell-based; conditions: Homo sapiens, PDE4DIP-BRAF fusion, 72 hrs
Method: (§2) The melanoma cells were grown in OptiMEM (Invitrogen, Carlsbad, CA) supplemented with 5% fetal calf serum and antibiotics. The normal human melanocytes (NBMEL) were grown in medium supplemented with bFGF, IBMX and dbcAMP [32]. Most of the Yale melanoma cell lines were characterized by next-generation sequencing (Supplementary Table 2).
(§3) Cell proliferation was measured with the CellTiter-Glo® Luminescent Cell Viability Assay (Promega Corporation, Madison, WI). Melanoma cells were seeded in 96-well plates in triplicate or quadruplet wells, with increasing concentrations of kinase inhibitors for 72 hrs. The rate of proliferation was also tested after knockdown of different SRC-family kinases (SFK) with hairpin lentivirus shRNA as indicated. […] The statistical significance of synergism of response to drug combinations was evaluated by following Chou and Talalay algorithm. See also details in Supplementary Material.

[3] = tested on: YUKSI melanoma cells; assay: CellTiter-Glo Luminescent Cell Viability Assay; assay type: cell-based; conditions: Homo sapiens, BRAF V600K, 72 hrs
Method: as §2, §3

[4] = tested on: YUROL melanoma cells; assay: CellTiter-Glo Luminescent Cell Viability Assay; assay type: cell-based; conditions: Homo sapiens, WT/WT, 72 hrs
Method: as §2, §3

[5] = tested on: YUGANK melanoma cells; assay: CellTiter-Glo Luminescent Cell Viability Assay; assay type: cell-based; conditions: Homo sapiens, NRAS Q61K, 72 hrs
Method: as §2, §3

[6] = tested on: YUZEST melanoma cells; assay: CellTiter-Glo Luminescent Cell Viability Assay; assay type: cell-based; conditions: Homo sapiens, BRAF V600E, 72 hrs
Method: as §2, §3

[7] = tested on: YURIF melanoma cells; assay: CellTiter-Glo Luminescent Cell Viability Assay; assay type: cell-based; conditions: Homo sapiens, BRAF V600K, 72 hrs
Method: as §2, §3

[8] = tested on: YULIPPY melanoma cells; assay: CellTiter-Glo Luminescent Cell Viability Assay; assay type: cell-based; conditions: Homo sapiens, BRAF V600E, 72 hrs
Method: as §2, §3

[9] = tested on: SK-MEL-28 melanoma cells; assay: CellTiter-Glo Luminescent Cell Viability Assay; assay type: cell-based; conditions: Homo sapiens, SK-MEL-28, BRAF V600E, 72 hrs
Method: as §2, §3

[10] = tested on: YUNIS melanoma cells; assay: CellTiter-Glo Luminescent Cell Viability Assay; assay type: cell-based; conditions: Homo sapiens, HRAS Q61K, 72 hrs
Method: as §2, §3

[11] = tested on: YUTICA melanoma cells; assay: CellTiter-Glo Luminescent Cell Viability Assay; assay type: cell-based; conditions: Homo sapiens, NRAS Q61R, 72 hrs
Method: as §2, §3

[12] = tested on: YUDOSO melanoma cells; assay: CellTiter-Glo Luminescent Cell Viability Assay; assay type: cell-based; conditions: Homo sapiens, NRAS Q61K, 72 hrs
Method: as §2, §3

[13] = tested on: phospho-ERBB2 Y1196; assay: Western blot, phospho-ERBB2; assay type: cell-based, human; conditions: YUSOC, YUROB, YUSIV, YUTOGS
Method: We used standard techniques to identify changes in intracellular signaling in response to various treatments. Briefly, melanoma cells were incubated with test compounds, using DMSO as a control, collected by scraping on ice, and lysed in RIPA buffer supplemented with protease and phosphatase inhibitors (MA #78428, and #78425, respectively, Thermo Fisher Scientific, Waltham, MA). Protein concentrations were measured with the BioRad kit (Bio-Rad Laboratories, Hercules, CA), SDS sample buffer was added, extracts were heated at 95°C, sonicated and centrifuged. Cell extracts (20 µg/lane) were fractionated in 3%–8% or 4–12 % tris-acetate gel (NP0006, NuPAGE Life Technologies). […]

[14] = biological target: YES1 (Homo sapiens, UniProt P07947); assay: KiNativ in situ kinase profiling in melanoma cell lysates; assay type: binding; parameters: the endogenous kinome response to SAB298 (0.05 µM, 0.5 µM and 5 µM) in lysates from two melanoma cell lines; host or cells: YUSIV melanoma cell lysate (not present in YUSIK); conditions: YES1 in YUSIV lysate; 3-point dose response
YES1, sequence (P07947 whole entry): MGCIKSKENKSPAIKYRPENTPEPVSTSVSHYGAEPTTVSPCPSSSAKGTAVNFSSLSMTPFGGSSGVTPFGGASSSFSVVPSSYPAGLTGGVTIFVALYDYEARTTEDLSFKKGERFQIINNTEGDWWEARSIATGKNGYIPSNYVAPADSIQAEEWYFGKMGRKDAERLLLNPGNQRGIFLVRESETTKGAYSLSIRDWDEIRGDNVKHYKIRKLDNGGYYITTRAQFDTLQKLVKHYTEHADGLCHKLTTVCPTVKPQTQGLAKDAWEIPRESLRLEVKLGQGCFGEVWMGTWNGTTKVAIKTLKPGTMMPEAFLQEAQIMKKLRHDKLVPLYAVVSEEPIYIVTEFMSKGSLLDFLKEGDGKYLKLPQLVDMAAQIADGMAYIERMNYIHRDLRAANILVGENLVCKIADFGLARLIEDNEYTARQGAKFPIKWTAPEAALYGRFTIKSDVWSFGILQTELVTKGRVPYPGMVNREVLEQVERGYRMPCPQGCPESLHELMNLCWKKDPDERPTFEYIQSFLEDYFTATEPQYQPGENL
Method: as §1

[15] = biological target: LCK (Homo sapiens, UniProt P06239); assay: as above; assay type: binding; parameters: we tested the endogenous kinome response to SAB298; host or cells: YUSIV or YUSIK melanoma cell lysate; conditions: LCK in YUSIV lysate; 3-point dose response
LCK, sequence (P06239 whole entry): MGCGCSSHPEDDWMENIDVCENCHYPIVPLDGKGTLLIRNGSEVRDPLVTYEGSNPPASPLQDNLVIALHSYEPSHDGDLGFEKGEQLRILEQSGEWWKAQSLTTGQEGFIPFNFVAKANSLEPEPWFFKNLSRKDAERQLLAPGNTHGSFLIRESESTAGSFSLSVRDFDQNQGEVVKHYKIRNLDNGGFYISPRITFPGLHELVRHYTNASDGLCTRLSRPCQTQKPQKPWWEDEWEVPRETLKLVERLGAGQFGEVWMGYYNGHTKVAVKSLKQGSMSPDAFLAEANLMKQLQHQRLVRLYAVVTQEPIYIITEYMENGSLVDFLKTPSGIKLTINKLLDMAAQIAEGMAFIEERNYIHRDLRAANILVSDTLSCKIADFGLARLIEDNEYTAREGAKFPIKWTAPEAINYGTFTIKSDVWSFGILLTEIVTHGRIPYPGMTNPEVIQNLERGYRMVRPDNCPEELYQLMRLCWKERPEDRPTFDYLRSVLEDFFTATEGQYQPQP
Method: as §1

Nc1ncnc2c1c(-c1ccc(Oc3ccccc3)cc1)nn2C[C@@H]1SSC[C@@H]1O [SAB298, (3S, 4S)-3-((4-amino-3-(4-phenoxyphenyl)-1H-pyrazolo[3,4-d]pyrimidin-1-yl)methyl)-1,2-dithiolan-4-ol]
pY416 SFK level [1]: consistently suppressed; also recorded: downregulated pSFK Y416
IC50 [2]: 0.237 µM
IC50 [3]: 0.582 µM
IC50 [4]: 0.717 µM
IC50 [5]: 0.456 µM
IC50 [6]: 0.263 µM
IC50 [7]: 0.5 µM
IC50 [8]: 0.111 µM
IC50 [9]: 0.812 µM
IC50 [10]: 2.58 µM
IC50 [11]: 0.766 µM
IC50 [12]: 2.36 µM
phospho-ERBB2 Y1196 level [13]: suppressed phospho-ERBB2 Y1196
IC50 [14]: < 0.01 µM
IC50 [15]: 1.4 µM
